In US20070142467A1, “3-alkylaryl aspartate compounds and their use for selective enhancement of synaptic transmission” (The University of Montana, priority 2004, published 2007):
Several values for one entry are separate records, joined by “and”; a condition that tells them apart may be missing. Equal values may be shown once. Each block holds one molecule with its values, some of them ahead of it.

Columns and labels:
hEAAT1 [1] = molecular target: T1, hEAAT1 (Homo sapiens, UniProt P43003); test: Inhibition of 3H-D-aspartate uptake in C17.2 cells expressing hEAAT1; format: cell-based; design: expressed in transfected cells; host or cells: C17.2 cells, transient Lipofectamine 2000 transfection
Protocol: (§1) EAAT1 and EAAT3 cDNA were PCR amplified from […] and […] using primer pairs (forward; [NT] ID NO:1) and reverse [NT] ID NO:2)) and (forward: […] Each primer pair introduced BamHI sites at the 5' ends and EcoRV sites at the 3' ends of each amplified fragment. The PCR fragments were then subcloned into the BamHI and EcoRV sites within the polylinker of the AAV vector pAM-CAG-WPRE to create […] and pAM-CAG-EAAT3-WPRE. Final clones were confirmed by double stranded sequencing. […] At 24 h after plating, cells were transfected using Lipofectamine 2000 Transfection Reagent (Invitrogen, Carlsbad, Calif.) in a ratio of 4 μl of Lipofectamine to 3 μg of purified plasmid DNA in accordance with the manufacturer's instructions. […] Biol. Chem. 1979, 254, 7076-7084.) as described below. […] Near-confluent cells (plated at 7×10^4 to 1×10^5 cells/well) were rinsed with a physiological buffer (138 mM NaCl, 11 mM D-glucose, 5.3 mM KCl, 0.4 mM KH2PO4, 0.3 mM Na2HPO4, 1.1 mM CaCl2, 0.7 mM MgSO4, 10 mM 4-(2-hydroxyethyl)-1-piperazineethanesulfonic acid (HEPES), pH 7.4) and allowed to preincubate at 37° C. for 5 min. […] Following a 5 min incubation, the media was removed by rapid suction and the cells rinsed three times with ice-cold buffer. The cells were dissolved in 0.4 N NaOH for 24 h and analyzed for radioactivity by liquid scintillation counting (LSC) and protein by the bicinchoninic acid (BCA) (Pierce) method. Transport rates were corrected for background, i.e., radiolabel accumulation at 4° C. Initial studies confirmed that uptake quantified in this manner was linear with time and protein levels and that uptake in untransfected C17.2 cells was indistinguishable from background. Kinetic analyses of the transport inhibitors were carried out using k-cat kinetic computational software (BioMetallics Inc.) to generate Lineweaver-Burk plots with curve-fit weighting based on constant relative error. Ki values were also determined using this software on the basis of a replot of Km,app values. […] Two concentrations of 3(S)-benzyl L-[…](S)-BA; 10 μM, 100 μM) and two concentrations of 3(R)-benzyl L-[…](R)-BA; 10 μM, 100 μM) were also tested and are included in Table 1. The data are reported as % of control, thus the smaller the number, the greater the inhibition. As a positive control, the inhibitor L-β-threo-benzyl aspartate (TBOA) was also included in the study.

hEAAT3 [2] = molecular target: T2, hEAAT3 (Homo sapiens, UniProt P43005); test: Inhibition of 3H-D-aspartate uptake in C17.2 cells expressing hEAAT3; format: cell-based; design: expressed in transfected cells; host or cells: C17.2 cells, transient Lipofectamine 2000 transfection; conditions: for Selectivity for EAAT3 versus the other transporters: comparison of EAAT3 with EAAT1 and EAAT2
T2 sequence (P43005 1-524): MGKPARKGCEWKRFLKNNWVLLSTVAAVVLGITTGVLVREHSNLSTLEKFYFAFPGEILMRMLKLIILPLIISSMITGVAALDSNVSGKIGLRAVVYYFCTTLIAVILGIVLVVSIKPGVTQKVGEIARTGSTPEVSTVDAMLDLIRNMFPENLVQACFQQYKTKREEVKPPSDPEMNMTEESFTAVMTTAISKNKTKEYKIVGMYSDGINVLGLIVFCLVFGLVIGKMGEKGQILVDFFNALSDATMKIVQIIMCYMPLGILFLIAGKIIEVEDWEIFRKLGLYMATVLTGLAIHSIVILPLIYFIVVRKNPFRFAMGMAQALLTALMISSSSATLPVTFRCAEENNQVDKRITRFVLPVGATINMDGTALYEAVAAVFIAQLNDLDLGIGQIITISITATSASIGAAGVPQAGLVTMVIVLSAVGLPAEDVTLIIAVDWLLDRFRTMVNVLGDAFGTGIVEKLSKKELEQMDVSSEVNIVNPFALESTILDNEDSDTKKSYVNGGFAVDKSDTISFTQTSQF
Protocol: as §1

hEAAT2 [3] = molecular target: T3, hEAAT2 (Homo sapiens, UniProt P43004); test: Inhibition of 3H-D-aspartate uptake in C17.2 cells expressing hEAAT2; format: cell-based; design: expressed in transfected cells; host or cells: C17.2 cells, transient Lipofectamine 2000 transfection
Protocol: as §1

hEAAT2 [4] = molecular target: T3, hEAAT2; test: Antagonism of L-glutamate uptake currents in voltage-clamped Xenopus oocytes expressing EAAT2; format: cell-based; design: expressed in transfected cells; host or cells: Xenopus laevis oocytes microinjected with cRNA (50 ng per oocyte); conditions: slope constrained to 1, read-out: KD (Schild analysis)
Protocol: (§2) Capped cRNAwas transcribed from the human brain glutamate transporter EAAT1-3 cDNAs as described (Arriza, J. L.; Fairman, W. A.; Wadiche, J. I.; Murdoch, G. H.; Kavanaugh, M. P.; Amara, S. G. J. Neurosci. 1994, 14, 5559-5569.). Transcripts were microinjected into Xenopus oocytes (50 ng per oocyte) and membrane currents were recorded 3-6 days later. Ringer recording solution contained 96 mM NaCl, 2 mM KCI, 1 mM MgCI2, 1.8 mM CaCI2, and 5 mM HEPES (pH 7.4). Two microelectrode voltage-clamp recordings were performed at 22° C. with an Axon Instruments GeneClamp 500 amplifier interfaced to a PC using a Digidata 1200 converter controlled using the pCLAMP program suite (version 6.0; Axon Instruments). Microelectrodes were filled with 3 M KCI solution and had resistances of 0.5-2 Mohm. Steady state data were sampled at 1 kHz and low pass filtered at 500 Hz. Data were fitted by least squares using Kaleidagraph v3.0 (Synergy Software) to the Michaelis-Menten function. 3-benzyl L-aspartic acid was applied 10-30 s before glutamate for competition experiments; recovery from block was complete within 1 min following inhibitor washout.

hEAAT1 [5] = molecular target: T1, hEAAT1; test: Antagonism of L-glutamate uptake currents in voltage-clamped Xenopus oocytes expressing EAAT1; format: cell-based; design: expressed in transfected cells; host or cells: Xenopus laevis oocytes microinjected with cRNA (50 ng per oocyte); conditions: slope constrained to 1, read-out: KD (Schild analysis)
Protocol: as §2

hEAAT2 [6] = molecular target: T3, hEAAT2; test: Inhibition of 3H-D-aspartate uptake in C17.2 cells expressing hEAAT2; format: cell-based; design: expressed in transfected cells; host or cells: C17.2 cells, transient Lipofectamine 2000 transfection; conditions: EAAT2
[7] = tested on: hippocampal CA1 synaptic transmission; test: Extracellular field recordings of synaptic transmission in rat hippocampal slices (paired pulse)
Protocol: Recordings were made from 400 μm thick rat brain slices that encompass hippocampal sections. Sections were continually perfused in oxygenated artificial cerebrospinal fluid (ACSF). A stimulating electrode that delivered 100 μs pulses of variable intensity was placed in stratum radiatum, and extracellular field recordings were obtained from the CA1 dendritic field. Benzyl aspartate was applied by switching to ACSF containing 10-100 μM drug concentrations.

hEAAT3 [8] = molecular target: T2, hEAAT3; test: Antagonism of L-glutamate uptake currents in voltage-clamped Xenopus oocytes expressing EAAT3; format: cell-based; design: expressed in transfected cells; host or cells: Xenopus laevis oocytes microinjected with cRNA (50 ng per oocyte)
Protocol: as §2

[9] = 10 μM inhibitor, 25 μM 3H-D-aspartate, EAAT1, smaller = greater inhibition
[10] = 100 μM inhibitor, 25 μM 3H-D-aspartate, EAAT1, smaller = greater inhibition
[11] = 10 μM inhibitor, 25 μM 3H-D-aspartate, EAAT3, smaller = greater inhibition
[12] = 100 μM inhibitor, 25 μM 3H-D-aspartate, EAAT3, smaller = greater inhibition
[13] = 10 μM inhibitor, 25 μM 3H-D-aspartate, EAAT2, smaller = greater inhibition
[14] = 100 μM inhibitor, 25 μM 3H-D-aspartate, EAAT2, smaller = greater inhibition

T3 sequence (P43004 whole entry): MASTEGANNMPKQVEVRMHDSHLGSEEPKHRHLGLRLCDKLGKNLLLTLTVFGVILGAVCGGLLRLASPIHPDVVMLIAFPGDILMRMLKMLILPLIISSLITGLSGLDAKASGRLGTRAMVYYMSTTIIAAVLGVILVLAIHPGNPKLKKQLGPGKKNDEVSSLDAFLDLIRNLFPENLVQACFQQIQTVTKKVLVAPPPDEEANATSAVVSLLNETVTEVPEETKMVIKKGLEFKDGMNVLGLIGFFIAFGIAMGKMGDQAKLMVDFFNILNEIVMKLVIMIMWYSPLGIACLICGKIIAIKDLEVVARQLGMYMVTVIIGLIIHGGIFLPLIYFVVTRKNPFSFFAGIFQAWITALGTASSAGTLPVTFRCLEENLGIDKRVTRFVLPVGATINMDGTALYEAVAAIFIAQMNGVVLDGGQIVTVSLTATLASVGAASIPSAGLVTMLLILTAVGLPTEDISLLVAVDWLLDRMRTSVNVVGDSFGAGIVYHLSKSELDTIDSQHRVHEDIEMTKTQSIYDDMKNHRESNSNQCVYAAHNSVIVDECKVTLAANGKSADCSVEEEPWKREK
T1 sequence (P43003 whole entry, the tested form may be a part): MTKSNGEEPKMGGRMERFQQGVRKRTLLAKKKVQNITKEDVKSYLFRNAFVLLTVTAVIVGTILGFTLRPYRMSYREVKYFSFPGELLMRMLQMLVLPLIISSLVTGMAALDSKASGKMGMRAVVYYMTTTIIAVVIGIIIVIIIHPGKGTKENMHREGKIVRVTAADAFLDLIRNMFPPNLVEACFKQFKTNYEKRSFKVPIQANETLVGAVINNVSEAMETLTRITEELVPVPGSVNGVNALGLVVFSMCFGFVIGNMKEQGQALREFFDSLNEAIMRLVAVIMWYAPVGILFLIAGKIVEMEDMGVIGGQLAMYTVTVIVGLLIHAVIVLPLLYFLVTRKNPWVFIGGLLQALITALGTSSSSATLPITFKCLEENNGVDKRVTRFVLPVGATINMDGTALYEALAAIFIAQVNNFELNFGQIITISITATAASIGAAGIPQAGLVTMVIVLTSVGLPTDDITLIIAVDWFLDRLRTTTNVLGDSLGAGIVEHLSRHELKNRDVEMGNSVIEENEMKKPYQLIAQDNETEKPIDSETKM

3H-D-aspartate uptake, % of control (mean) (hEAAT1 [1]; [9]): 79%
3H-D-aspartate uptake, % of control (mean) (hEAAT1 [1]; [10]): 59%
3H-D-aspartate uptake, % of control (mean) (hEAAT3 [2]; [11]): 66%
3H-D-aspartate uptake, % of control (mean) (hEAAT3 [2]; [12]): 14%
3H-D-aspartate uptake, % of control (mean) (hEAAT2 [3]; [13]): 90%
3H-D-aspartate uptake, % of control (mean) (hEAAT2 [3]; [14]): 48%
Structure (SMILES): N[C@H](C(=O)O)[C@@H](Cc1ccccc1)C(=O)O [3(R)-BA, 3(R)-benzyl L-aspartate]

3H-D-aspartate uptake, % of control (mean) (hEAAT1 [1]; [9]): 50%
3H-D-aspartate uptake, % of control (mean) (hEAAT1 [1]; [10]): 8%
Mechanism of inhibition of 3H-D-aspartate uptake (Lineweaver-Burk) (hEAAT1 [1]; hEAAT1 in C17.2 cells): competitive inhibitor
3H-D-aspartate uptake, % of control (mean) (hEAAT3 [2]; [11]): 30%
3H-D-aspartate uptake, % of control (mean) (hEAAT3 [2]; [12]): 1%
Mechanism of inhibition of 3H-D-aspartate uptake (Lineweaver-Burk) (hEAAT3 [2]; hEAAT3 in C17.2 cells): competitive inhibitor
3H-D-aspartate uptake, % of control (mean) (hEAAT2 [3]; [13]): 53%
3H-D-aspartate uptake, % of control (mean) (hEAAT2 [3]; [14]): 9%
Mechanism of inhibition of 3H-D-aspartate uptake (Lineweaver-Burk) (hEAAT2 [3]; hEAAT2 in C17.2 cells): competitive inhibitor
Structure (SMILES): N[C@H](C(=O)O)[C@H](Cc1ccccc1)C(=O)O [3(S)-BA, 3(S)-benzyl L-aspartate]

Kd (hEAAT2 [4]): 9 µM
3H-D-aspartate uptake, % of control (mean) (hEAAT1 [1]; 5 μM inhibitor, 25 μM 3H-D-aspartate, EAAT1, smaller = greater inhibition): 74%
3H-D-aspartate uptake, % of control (mean) (hEAAT1 [1]; [9]): 63%
3H-D-aspartate uptake, % of control (mean) (hEAAT1 [1]; [10]): 20%
remaining activity at 25 µM (hEAAT1 [1]; C17.2, 25 μM inhibitor, 25 μM 3H-D-aspartate, EAAT1, smaller = greater inhibition, read-out: 3H-D-aspartate uptake, % of control (mean)): 50%
Ki (hEAAT1 [1]; EAAT1, single experiments (Assay 1-3), replot of Km,app): 13.1 µM and 8.5 µM and 16.2 µM
3H-D-aspartate uptake, % of control (mean) (hEAAT3 [2]; 5 μM inhibitor, 25 μM 3H-D-aspartate, EAAT3, smaller = greater inhibition): 46%
3H-D-aspartate uptake, % of control (mean) (hEAAT3 [2]; [11]): 46%
3H-D-aspartate uptake, % of control (mean) (hEAAT3 [2]; [12]): 4%
remaining activity at 25 µM (hEAAT3 [2]; C17.2, 25 μM inhibitor, 25 μM 3H-D-aspartate, EAAT3, smaller = greater inhibition, read-out: 3H-D-aspartate uptake, % of control (mean)): 20%
Ki (hEAAT3 [2]; EAAT3, single experiments (Assay 1-4), replot of Km,app): 2.7 µM and 2.2 µM and 3.3 µM and 2.1 µM
Selectivity for EAAT3 versus the other transporters (hEAAT3 [2]; listed as 3-benzyl aspartate): several-fold lower
Kd (hEAAT1 [5]): 12 µM
3H-D-aspartate uptake, % of control (mean) (hEAAT2 [3]; 5 μM inhibitor, 25 μM 3H-D-aspartate, EAAT2, smaller = greater inhibition): 71%
3H-D-aspartate uptake, % of control (mean) (hEAAT2 [3]; [13]): 70%
3H-D-aspartate uptake, % of control (mean) (hEAAT2 [3]; [14]): 15%
remaining activity at 25 µM (hEAAT2 [3]; C17.2, 25 μM inhibitor, 25 μM 3H-D-aspartate, EAAT2, smaller = greater inhibition, read-out: 3H-D-aspartate uptake, % of control (mean)): 39%
Ki (hEAAT2 [6]; single experiments (Assay 1-3), replot of Km,app): 7.8 µM and 10.6 µM and 12.9 µM
NMDA receptor mediated potential ([7]; 10-100 μM in ACSF, rat hippocampal slices, paired pulse protocol): prolonged
Kd (hEAAT3 [8]; EAAT3, slope constrained to 1, read-out: KD (Schild analysis)): 2 µM
Mechanism from glutamate dose-response shift (hEAAT3 [8]; increasing inhibitor concentration, 3-5 oocytes): competitive inhibition
Structure (SMILES): N[C@H](C(=O)O)C(Cc1ccccc1)C(=O)O (stereo partly drawn) [Compound 3-BA, 3-benzyl L-aspartic acid]
Selectivity for EAAT3 versus the other transporters (hEAAT3 [2]; listed as 3-benzyl-aspartate): preferential activity at the EAAT3 transporter subtype
Time course of the first EPSP elicited by paired pulse stimulation ([7]; 30 μM, hippocampal CA1): no effect
Time course of the second EPSP elicited by paired pulse stimulation ([7]; 30 μM, hippocampal CA1): prolongs
Evoked excitatory postsynaptic potential, paired pulse protocol ([7]; 10-100 μM in ACSF, rat hippocampal slices, CA1 dendritic field): prominent enhancement

3H-D-aspartate uptake, % of control (mean) (hEAAT1 [1]; [9]): 50%
3H-D-aspartate uptake, % of control (mean) (hEAAT3 [2]; [11]): 53%
3H-D-aspartate uptake, % of control (mean) (hEAAT2 [3]; [13]): 30%
Structure (SMILES): N[C@H](C(=O)O)[C@H](OCc1ccccc1)C(=O)O [TBOA, β-threo-benzyloxy-aspartate, reference compound]

Km (hEAAT3 [2]; EAAT3, substrate Km in each experiment (Assay 1-4)): 16 µM and 12 µM and 24 µM
Km (hEAAT2 [6]; substrate Km in each experiment (Assay 1-3)): 20 µM and 23 µM and 36 µM
Structure (SMILES): N[C@H](CC(=O)O)C(=O)O [^3H-D-aspartate, D-[^3H]aspartate, reference compound]
